Laboratory results reported in paper PMC4815019, “The Terminal Oxidase Cytochrome bd Promotes Sulfide-resistant Bacterial Respiration and Growth” (Scientific Reports, 2016).

Columns and labels:
[1] = target: T1, cytochrome bo3 (heme-copper bo3 oxidase) (Escherichia coli, UniProt P0ABI8); assay: O2 consumption, high-resolution respirometry (Oxygraph-2k); Hill fit with n = […]; assay type: biochemical
T1 construct: gene cyoB; dodecyl maltoside micelles; with Cytochrome bo(3) ubiquinol oxidase subunit 2; Cytochrome bo(3) ubiquinol oxidase subunit 3; Cytochrome bo(3) ubiquinol oxidase subunit 4
T1 sequence (P0ABJ3 whole entry): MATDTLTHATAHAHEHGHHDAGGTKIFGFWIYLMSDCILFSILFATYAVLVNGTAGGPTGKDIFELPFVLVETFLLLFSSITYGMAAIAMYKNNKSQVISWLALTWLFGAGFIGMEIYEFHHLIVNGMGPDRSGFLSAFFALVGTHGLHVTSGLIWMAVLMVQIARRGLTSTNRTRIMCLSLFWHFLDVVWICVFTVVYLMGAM
T1 sequence (P0ABI8 whole entry): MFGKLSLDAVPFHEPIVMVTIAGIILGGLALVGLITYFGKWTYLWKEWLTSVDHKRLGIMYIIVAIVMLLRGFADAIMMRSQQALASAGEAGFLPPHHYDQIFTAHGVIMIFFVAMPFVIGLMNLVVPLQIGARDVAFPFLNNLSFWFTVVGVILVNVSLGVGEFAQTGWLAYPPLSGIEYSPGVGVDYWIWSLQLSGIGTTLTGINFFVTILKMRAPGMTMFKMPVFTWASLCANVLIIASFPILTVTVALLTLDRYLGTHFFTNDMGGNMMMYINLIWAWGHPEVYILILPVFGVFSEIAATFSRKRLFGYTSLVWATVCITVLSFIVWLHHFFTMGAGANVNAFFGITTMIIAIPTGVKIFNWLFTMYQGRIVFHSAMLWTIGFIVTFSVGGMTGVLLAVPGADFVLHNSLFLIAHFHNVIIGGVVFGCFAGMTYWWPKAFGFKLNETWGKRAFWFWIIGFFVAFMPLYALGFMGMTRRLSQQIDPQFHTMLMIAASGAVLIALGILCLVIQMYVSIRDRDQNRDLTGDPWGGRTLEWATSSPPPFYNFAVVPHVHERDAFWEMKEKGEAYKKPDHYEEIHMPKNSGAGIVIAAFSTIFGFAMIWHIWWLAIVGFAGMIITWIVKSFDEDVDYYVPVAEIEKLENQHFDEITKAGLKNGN
T1 sequence (P0ABJ1 25-315, further chain): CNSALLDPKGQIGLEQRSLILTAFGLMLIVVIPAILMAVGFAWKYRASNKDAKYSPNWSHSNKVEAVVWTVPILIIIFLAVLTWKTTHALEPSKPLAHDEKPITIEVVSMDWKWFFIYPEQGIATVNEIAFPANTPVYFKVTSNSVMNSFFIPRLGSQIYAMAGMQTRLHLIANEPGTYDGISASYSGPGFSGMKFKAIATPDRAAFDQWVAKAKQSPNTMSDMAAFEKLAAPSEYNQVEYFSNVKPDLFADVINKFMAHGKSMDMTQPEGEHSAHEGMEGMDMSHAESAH
T1 sequence (P0ABJ6 whole entry, further chain): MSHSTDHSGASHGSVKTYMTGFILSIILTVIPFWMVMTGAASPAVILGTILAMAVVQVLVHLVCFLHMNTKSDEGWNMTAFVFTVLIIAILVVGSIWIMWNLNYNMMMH

[2] = target: O-acetylserine sulfhydrylase from Entamoeba histolytica (Entamoeba histolytica); assay: SEC; 120-ml Superdex S-200 column, buffer A (50 mM potassium phosphate, 300 mM KCl, pH 7.5, 10% glycerol), 0.7 mL/min

S [NaHS] was tested, and the IC50 [1] was 1100 ± 100 nM.
“O-acetylserine sulfhydrylase from Entamoeba histolytica (enzyme)” showed a stoichiometry N [2] of 2.
